Measurements: ChEMBL document CHEMBL3885861, “Open TG-GATES”

Organism: Rattus norvegicus
Test: Open TG-GATES - Regimen: Single
Assay type: toxicity, organism-based, Sprague-Dawley
Design: regimen Single, gender Male, age 6 weeks
Details: in vivo, po, route gavage; for Bas / Eos / Fbg / Hb / Ht / Lym / MCHC / MCV / Mono / Neu / RBC / Ret / WBC / Plat: tissue Blood; for KIDNEY_TOTAL: tissue Kidney; for LIVER: tissue Liver; for ALT / AST / BUN / CRE / Ca / Cl / DBIL / GLC / IP / K / LDH / Na / PL / RALB / TBIL / TC / TP / gamma-GTP: tissue Plasma
[1] = 0 mg/kg, 3 h, dose level Control
[2] = 0 mg/kg, 6 h, dose level Control
[3] = 0 mg/kg, 9 h, dose level Control
[4] = 0 mg/kg, 24 h, dose level Control

Compound `C[C@@H]1C[C@H]2[C@@H]3CCC4=CC(=O)C=C[C@]4(C)[C@@]3(F)[C@@H](O)C[C@]2(C)[C@@]1(O)C(=O)CO` [DEXAMETHASONE] has a TERMINAL_BW [1] of 213.8 g, a Bas [1] of 0% and an Eos [1] of 1%. It also gave a Fbg [1] of 235.6 mg/dL, a Hb [1] of 13 g/dL and a Ht [1] of 39.6%. For the same compound, the Lym [1] was 74.6%, the MCHC [1] was 32.7% and the MCV [1] was 64.5 fL. For the same compound, the Mono [1] was 7%, the Neu [1] was 18% and the RBC [1] was 615 x10_4/ul. The Ret [1] was 8.3%, the WBC [1] was 98.2 x10_2/uL and the KIDNEY_TOTAL [1] was 0.6 g. It also gave an LIVER [1] of 10.5 g, an ALT [1] of 38.4 IU/L and an AST [1] of 70.4 IU/L. The BUN [1] was 11.2 mg/dL, the CRE [1] was 0.4 mg/dL and the Ca [1] was 10.9 mg/dL. For the same compound, the Cl [1] was 103.4 meq/L, the DBIL [1] was 0.012 mg/dL and the GLC [1] was 193.2 mg/dL. The IP [1] was 9.8 mg/dL, the K [1] was 4.1 meq/L and the LDH [1] was 79.4 IU/L. It also gave a Na [1] of 140.8 meq/L, a PL [1] of 140.6 mg/dL and an RALB [1] of 3.7 g/dL. It also gave a TBIL [1] of 0.044 mg/dL, a TC [1] of 79 mg/dL and a TP [1] of 5.3 g/dL. The gamma-GTP [1] was 0.8 IU/L, the TERMINAL_BW [2] was 209.7 g and the Bas [2] was 0%. For the same compound, the Eos [2] was 0.6%, the Fbg [2] was 234.6 mg/dL and the Hb [2] was 13.3 g/dL. For the same compound, the Ht [2] was 40.4%, the Lym [2] was 80.6% and the MCHC [2] was 32.9%. For the same compound, the MCV [2] was 64.6 fL, the Mono [2] was 4.4% and the Plat [2] was 118.9 x10_4/uL. For the same compound, the RBC [2] was 627.4 x10_4/ul, the Ret [2] was 7.5% and the WBC [2] was 103.8 x10_2/uL. The KIDNEY_TOTAL [2] was 0.7 g, the LIVER [2] was 9.7 g and the ALT [2] was 34.2 IU/L. It also gave an AST [2] of 65.2 IU/L, a BUN [2] of 10.2 mg/dL and a CRE [2] of 0.4 mg/dL. For the same compound, the Ca [2] was 11 mg/dL, the Cl [2] was 103.8 meq/L and the DBIL [2] was 0.014 mg/dL. It also gave a GLC [2] of 164.8 mg/dL, an IP [2] of 9.5 mg/dL and a K [2] of 4.3 meq/L. The LDH [2] was 74.2 IU/L, the Na [2] was 140.2 meq/L and the PL [2] was 149.6 mg/dL. For the same compound, the RALB [2] was 3.9 g/dL, the TBIL [2] was 0.06 mg/dL and the TC [2] was 84.8 mg/dL. For the same compound, the TP [2] was 5.6 g/dL, the gamma-GTP [2] was 0 IU/L and the TERMINAL_BW [3] was 215.1 g. It also gave a Bas [3] of 0%, an Eos [3] of 1% and a Fbg [3] of 233.2 mg/dL. For the same compound, the Hb [3] was 13.2 g/dL, the Ht [3] was 39.9% and the Lym [3] was 73.2%. For the same compound, the MCHC [3] was 33%, the MCV [3] was 63.7 fL and the Mono [3] was 7%. The Neu [3] was 19%, the Plat [3] was 125.1 x10_4/uL and the RBC [3] was 626.8 x10_4/ul. For the same compound, the Ret [3] was 7.8%, the WBC [3] was 104.7 x10_2/uL and the KIDNEY_TOTAL [3] was 0.7 g. For the same compound, the LIVER [3] was 9.4 g, the ALT [3] was 30.6 IU/L and the AST [3] was 59.4 IU/L. It also gave a BUN [3] of 11 mg/dL, a CRE [3] of 0.3 mg/dL and a Ca [3] of 10.5 mg/dL. It also gave a Cl [3] of 104 meq/L, a DBIL [3] of 0.01 mg/dL and a GLC [3] of 171.4 mg/dL. The IP [3] was 10.1 mg/dL, the K [3] was 4.4 meq/L and the LDH [3] was 80.4 IU/L. For the same compound, the Na [3] was 140.8 meq/L, the PL [3] was 141.8 mg/dL and the RALB [3] was 3.8 g/dL. It also gave a TBIL [3] of 0.046 mg/dL, a TC [3] of 82.8 mg/dL and a TP [3] of 5.5 g/dL. It also gave a gamma-GTP [3] of 0.8 IU/L, a TERMINAL_BW [4] of 229.3 g and a Bas [4] of 0%. The Eos [4] was 1%, the Fbg [4] was 239.6 mg/dL and the Hb [4] was 13.2 g/dL. For the same compound, the Ht [4] was 40.1%, the Lym [4] was 73.4% and the MCHC [4] was 33%. The MCV [4] was 65.6 fL, the Mono [4] was 10.2% and the Neu [4] was 15.6%. For the same compound, the Plat [4] was 124.7 x10_4/uL, the RBC [4] was 611.2 x10_4/ul and the Ret [4] was 7.6%. The WBC [4] was 107 x10_2/uL, the KIDNEY_TOTAL [4] was 0.7 g and the LIVER [4] was 11.3 g. For the same compound, the ALT [4] was 40.6 IU/L, the AST [4] was 67.2 IU/L and the BUN [4] was 15.8 mg/dL. For the same compound, the CRE [4] was 0.4 mg/dL, the Ca [4] was 10.9 mg/dL and the Cl [4] was 103 meq/L. It also gave a DBIL [4] of 0.014 mg/dL, a GLC [4] of 192.6 mg/dL and an IP [4] of 8 mg/dL. The K [4] was 4.4 meq/L, the LDH [4] was 89.8 IU/L and the Na [4] was 140 meq/L. For the same compound, the PL [4] was 172.2 mg/dL, the RALB [4] was 3.9 g/dL and the TBIL [4] was 0.04 mg/dL. For the same compound, the TC [4] was 95.4 mg/dL, the TP [4] was 5.7 g/dL and the gamma-GTP [4] was 0 IU/L. The TERMINAL_BW (1 mg/kg, 3 h, dose level Low) was 220.4 g.
